Key:
Format in all cases: cell-based
hTRPV1 = target: T1, hTRPV1 (Homo sapiens, UniProt Q8NER1); assay: whole-cell patch-clamp, capsaicin-evoked currents in HEK293 cells expressing hTRPV1
T1 construct: gene TRPV1

hTRPA1 [1] = target: T2, hTRPA1 (Homo sapiens, UniProt O75762); assay: whole-cell patch-clamp, AITC-evoked currents in HEK293 cells; % inhibition at […]
T2 construct: gene TRPA1

rTRPV1 = target: T3, rTRPV1 (Rattus norvegicus, UniProt O35433); assay: Ca2+ microfluorography
T3 construct: gene Trpv1

hTRPM8 = target: T4, hTRPM8 (Homo sapiens, UniProt Q7Z2W7); assay: whole-cell patch-clamp, menthol-evoked currents in HEK293 cells; % block at […]
T4 construct: gene TRPM8

hTRPA1 [2] = target: T2, hTRPA1; assay: whole-cell patch-clamp, AITC-evoked currents in HEK293 cells, […]

T2 sequence (O75762 whole entry): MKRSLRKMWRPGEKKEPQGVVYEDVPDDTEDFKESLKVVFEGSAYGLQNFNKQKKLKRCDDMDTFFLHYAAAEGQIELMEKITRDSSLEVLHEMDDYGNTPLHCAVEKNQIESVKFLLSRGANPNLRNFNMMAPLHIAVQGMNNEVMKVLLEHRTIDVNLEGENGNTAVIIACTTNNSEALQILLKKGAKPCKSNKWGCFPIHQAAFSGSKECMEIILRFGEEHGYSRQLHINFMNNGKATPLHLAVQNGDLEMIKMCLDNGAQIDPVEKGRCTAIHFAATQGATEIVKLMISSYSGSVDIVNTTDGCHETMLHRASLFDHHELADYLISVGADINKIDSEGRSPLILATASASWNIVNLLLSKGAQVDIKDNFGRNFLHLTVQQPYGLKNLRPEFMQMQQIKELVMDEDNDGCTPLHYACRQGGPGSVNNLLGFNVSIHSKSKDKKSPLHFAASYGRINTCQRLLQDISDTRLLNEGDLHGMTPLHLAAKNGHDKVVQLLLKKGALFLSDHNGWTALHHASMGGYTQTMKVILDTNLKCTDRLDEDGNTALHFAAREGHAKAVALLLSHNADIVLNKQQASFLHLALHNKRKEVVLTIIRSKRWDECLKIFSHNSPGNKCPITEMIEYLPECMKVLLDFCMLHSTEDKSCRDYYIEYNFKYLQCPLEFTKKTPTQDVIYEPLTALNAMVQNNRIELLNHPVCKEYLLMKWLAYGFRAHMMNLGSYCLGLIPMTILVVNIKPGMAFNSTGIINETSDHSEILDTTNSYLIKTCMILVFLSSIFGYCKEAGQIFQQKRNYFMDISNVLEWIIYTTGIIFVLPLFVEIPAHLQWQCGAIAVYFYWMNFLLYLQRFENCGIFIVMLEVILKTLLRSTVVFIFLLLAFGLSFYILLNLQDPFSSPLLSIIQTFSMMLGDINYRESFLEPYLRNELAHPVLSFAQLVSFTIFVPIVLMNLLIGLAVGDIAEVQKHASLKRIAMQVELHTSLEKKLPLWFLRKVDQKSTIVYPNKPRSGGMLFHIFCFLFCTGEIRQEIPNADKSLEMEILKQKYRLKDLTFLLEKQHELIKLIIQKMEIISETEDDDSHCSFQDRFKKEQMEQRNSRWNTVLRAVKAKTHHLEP
T3 sequence (O35433 whole entry): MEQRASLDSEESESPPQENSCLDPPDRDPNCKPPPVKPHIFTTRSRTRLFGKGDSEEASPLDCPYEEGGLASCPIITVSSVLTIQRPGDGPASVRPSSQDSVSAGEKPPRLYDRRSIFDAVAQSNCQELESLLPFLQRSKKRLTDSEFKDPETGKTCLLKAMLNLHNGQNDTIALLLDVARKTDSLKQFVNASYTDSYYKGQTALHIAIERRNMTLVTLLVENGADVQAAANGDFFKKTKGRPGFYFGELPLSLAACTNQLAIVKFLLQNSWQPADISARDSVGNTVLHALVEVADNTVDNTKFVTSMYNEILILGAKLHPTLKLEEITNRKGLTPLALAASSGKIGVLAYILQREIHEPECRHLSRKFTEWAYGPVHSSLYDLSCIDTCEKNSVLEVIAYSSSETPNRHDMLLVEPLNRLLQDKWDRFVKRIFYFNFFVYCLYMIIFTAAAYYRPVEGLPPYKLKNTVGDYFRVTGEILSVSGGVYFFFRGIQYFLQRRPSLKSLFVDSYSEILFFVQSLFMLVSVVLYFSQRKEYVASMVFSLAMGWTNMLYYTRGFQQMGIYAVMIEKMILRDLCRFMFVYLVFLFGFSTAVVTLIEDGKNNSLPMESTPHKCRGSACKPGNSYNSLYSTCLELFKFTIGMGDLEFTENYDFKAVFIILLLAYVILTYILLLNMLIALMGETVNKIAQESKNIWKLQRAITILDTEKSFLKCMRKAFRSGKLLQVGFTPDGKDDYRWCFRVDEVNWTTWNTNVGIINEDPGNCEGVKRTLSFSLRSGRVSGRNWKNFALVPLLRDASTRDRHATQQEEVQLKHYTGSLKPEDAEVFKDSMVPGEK
T1 sequence (Q8NER1 whole entry): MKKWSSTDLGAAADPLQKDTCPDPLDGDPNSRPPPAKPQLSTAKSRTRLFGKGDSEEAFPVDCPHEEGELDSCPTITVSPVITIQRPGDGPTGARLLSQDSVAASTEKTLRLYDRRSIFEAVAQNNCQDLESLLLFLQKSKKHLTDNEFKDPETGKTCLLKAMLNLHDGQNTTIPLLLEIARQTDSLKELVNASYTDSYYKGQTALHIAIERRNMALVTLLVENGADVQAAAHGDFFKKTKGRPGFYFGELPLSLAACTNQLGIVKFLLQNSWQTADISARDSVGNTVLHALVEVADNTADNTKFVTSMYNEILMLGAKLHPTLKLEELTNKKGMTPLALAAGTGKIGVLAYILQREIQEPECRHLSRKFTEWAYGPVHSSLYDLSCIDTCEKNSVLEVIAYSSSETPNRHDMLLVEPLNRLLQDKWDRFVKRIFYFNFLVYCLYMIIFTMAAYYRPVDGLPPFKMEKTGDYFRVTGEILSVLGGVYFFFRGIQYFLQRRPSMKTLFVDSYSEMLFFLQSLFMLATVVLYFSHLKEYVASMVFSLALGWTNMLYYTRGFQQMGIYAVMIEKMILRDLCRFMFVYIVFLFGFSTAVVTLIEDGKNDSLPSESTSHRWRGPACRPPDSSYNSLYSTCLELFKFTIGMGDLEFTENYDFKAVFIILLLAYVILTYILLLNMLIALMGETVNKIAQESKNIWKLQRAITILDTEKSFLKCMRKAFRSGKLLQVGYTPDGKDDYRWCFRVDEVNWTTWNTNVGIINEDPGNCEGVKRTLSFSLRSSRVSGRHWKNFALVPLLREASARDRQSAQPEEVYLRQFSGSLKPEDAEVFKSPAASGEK
T4 sequence (Q7Z2W7 whole entry): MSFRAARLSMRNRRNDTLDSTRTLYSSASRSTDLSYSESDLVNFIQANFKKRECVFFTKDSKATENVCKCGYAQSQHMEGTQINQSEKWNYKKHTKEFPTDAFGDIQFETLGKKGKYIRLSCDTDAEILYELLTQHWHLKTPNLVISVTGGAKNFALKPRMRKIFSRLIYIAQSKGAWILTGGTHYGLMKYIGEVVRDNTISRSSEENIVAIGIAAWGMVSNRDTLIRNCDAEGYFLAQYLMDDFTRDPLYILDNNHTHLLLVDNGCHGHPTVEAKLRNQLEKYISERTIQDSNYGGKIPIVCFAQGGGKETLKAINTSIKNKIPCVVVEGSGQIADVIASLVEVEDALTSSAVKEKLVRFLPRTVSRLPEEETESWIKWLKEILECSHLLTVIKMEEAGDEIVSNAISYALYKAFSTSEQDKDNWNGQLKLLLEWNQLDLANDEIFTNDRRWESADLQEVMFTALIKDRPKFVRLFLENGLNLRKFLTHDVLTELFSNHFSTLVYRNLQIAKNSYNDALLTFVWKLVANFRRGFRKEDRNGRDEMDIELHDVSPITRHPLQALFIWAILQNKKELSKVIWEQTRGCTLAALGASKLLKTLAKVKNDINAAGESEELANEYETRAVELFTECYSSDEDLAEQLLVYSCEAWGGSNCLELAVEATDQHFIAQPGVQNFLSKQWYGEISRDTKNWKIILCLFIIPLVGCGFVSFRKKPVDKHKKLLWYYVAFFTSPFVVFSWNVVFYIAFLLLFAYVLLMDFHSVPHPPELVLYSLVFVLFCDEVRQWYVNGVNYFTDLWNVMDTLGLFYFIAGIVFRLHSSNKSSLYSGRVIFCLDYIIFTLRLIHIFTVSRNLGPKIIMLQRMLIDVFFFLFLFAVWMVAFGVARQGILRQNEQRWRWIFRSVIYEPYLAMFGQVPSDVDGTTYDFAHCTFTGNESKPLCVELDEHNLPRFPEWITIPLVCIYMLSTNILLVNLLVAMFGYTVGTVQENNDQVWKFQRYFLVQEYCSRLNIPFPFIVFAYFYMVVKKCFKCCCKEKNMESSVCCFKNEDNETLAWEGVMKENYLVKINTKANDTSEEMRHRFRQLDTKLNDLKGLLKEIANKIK

Question: What does the source list for `CCCCCCCCCCCC(=O)OCC(=O)NCc1cc(OC)c(O)cc1I` [AG1529, 2-((4-hydroxy-2-iodo-5-methoxybenzyl)amino)-2-oxoethyl dodecanoate]?
Answer: IC50 (hTRPV1): 900 ± 500 nM; inhibition at 10 µM (hTRPA1 [1]): ~40%; IC50 (rTRPV1): 900 ± 200 nM; % (hTRPM8): ~ 40%

Question: For `CC(C)c1ccc(NC(=O)Cn2cnc3c2c(=O)n(C)c(=O)n3C)cc1` [HC030031, 1,2,3,6-Tetrahydro-1,3-dimethyl-N-[4-(1-methylethyl)phenyl]-2,6-dioxo-7H-purine-7-acetamide], which “whole-cell patch-clamp, AITC-evoked currents in HEK293 cells, 5 μM” value (hTRPA1 [2]) is on record?
Answer: Its value is “a reference TRPA1 antagonist, completely abrogated AITC-evoked ionic currents”.

— paper PMC7794549, “A capsaicinoid-based soft drug, AG1529, for attenuating TRPV1-mediated histaminergic and inflammatory sensory neuron excitability” (Scientific Reports, 2021)
